Key:
[1] = Cell proliferation / viability assay (CyQuant or Coulter count), SSI-4 dose response; format: cell-based; conditions: 72 h; responsive HCC, CCA, ccRCC and MM cell lines; dose response 0.01-10,000 nM, 3 day exposure
Method: (§1) Cells were seeded at 5,000 cells/well in clear-bottom 96-well plates in triplicate. Drug treatment was applied at 1:1000 in reduced serum conditions (3%). After 72 hours, cells were washed with PBS, and stored at −80° C. prior to analysis using CyQuant® Proliferation Analysis Kit (Invitrogen) per manufacturers' protocol for relative fluorescence units. Alternatively, cells were plated 2×10^5/ well in 12-well plates (Genesee Scientific) in triplicate prior to drug treatment. After 120-hour treatment, cell number was established using a Coulter Particle Counter (Beckman). Oleic acid-albumin (Sigma Aldrich) was added to media at 5 μM, and was applied adjuvant to drug treatment. Drug stocks were prepared in DMSO (Sigma) at 1000×. IC50 dosing per cell line was calculated as described elsewhere (von Roemeling et al., Oncotarget, 9:3-20 (2018)).
(§2) SCD1 expression was examined in cell lines. Cells were treated with 1 μM SSI-4 for 3 days and a viability assay was used to identify SSI-4 sensitive and insensitive cell lines. Certain cell lines were also treated with varied doses (0.01-10,000 nM) of SSI-4 for 3 days. Not all cells that express SCD1 are sensitive to a SCD1 inhibitor (FIG. 1 and FIG. 2).

[2] = test system: hepatocellular carcinoma (HCC), cholangiocarcinoma (CCA), clear cell renal cell carcinoma (ccRCC) and melanoma (MM) cell lines; assay: as above; format: cell-based; conditions: responsive cell lines; 1 μM SSI-4 + 500 ug/ml BSA-OA, three days
Method: as §1, §2

[3] = test system: SSI-4 sensitive HCC cells; assay: Soft agar colony formation; format: cell-based; conditions: 1 micromolar SSI-4
Method: Soft agar cultures were prepared by diluting 2× growth medium 1:1 in 1.5% SeaplaqueGTG agarose (Lonza), with 500 cells/plate in 60-mm culture dishes (Genesee Scientific). Colonies were stained with Giemsa (LabChem Inc.) and counted after 3 weeks.
In FIG. 3A, cells representative of HCC (top row), RCC (middle row) and MM (bottom row) are shown. In FIG. 3B, sensitive HCC cells are treated with 1 micromolar SSI-4 showing inhibition of colony formation (i.e. growth). In FIG. 3C, colonies are quantitated comparing control to SSI-4 treated cells. […] Each treatment group was repeated in triplicate. Colony number is the mean+/−standard deviation (S.D.). Thus, soft agar assay can independently predict response to SCD1 inhibitor but requires fresh live tumor tissue and laboratories such as the Copland laboratory that can access tissues, process tissues and perform the assays.

[4] = test system: Unsaturated fatty acids (UFAs); assay: Unsaturated fatty acids measured in media of cells; format: cell-based; conditions: SSI-4 sensitive cells, 1 μM SSI-4
[5] = test system: endoplasmic reticulum (ER) stress induced proteins; assay: mRNA expression of ER stress induced proteins by qPCR; format: cell-based; conditions: sensitive cells, 1 μM SSI-4 for 48 hours, fold change to untreated cells
[6] = test system: BIP, cleaved PARP, cleaved caspase 3, c-Myc, cyclin D1, survivin; assay: Western blot analysis of ER stress, apoptosis and c-Myc signaling; format: cell-based
Method: HCC, RCC, CCA, and MM cell lines (2000 cells/well) were incubated with DMSO control (1:1000), 500 ug/ml bovine serum albumin-oleic acid (BSA-OA) and/or 1 μM SSI-4 for three days and determined for cell viability (FIG. 4A). Nonresponsive cell lines are closed triangle and responsive are open triangles. […] Specificity for blockade of SCD1 is shown by rescue with the enzyme end product, oleic acid (OA).
Western blot analysis: Cell protein extracts were prepared using RIPA lysis buffer containing 50 mmol/L Tris, 5 mmol/L EDTA, 150 mmol/L NaCl, 0.1% SDS, 0.5% deoxycholate, 1% NP40, protease inhibitor cocktail, and phosphatase inhibitor. Tissue protein extracts were prepared from frozen samples using 1% SDS in 50 mmol/L pH 8.0 Tris buffer containing protease inhibitor cocktail and phosphatase inhibitor with brief sonication on ice. Electrophoresis, transfer, blocking, and antibody preparations were performed. The following primary antibodies were included: SCD1, c-Myc, pSrc Y418, Src, b-actin, PARP, cleaved caspase 3, survivin, cyclin D1. Secondary species-specific horseradish peroxidase-labeled antibodies were applied, and Supersignal Chemiluminescent Kit was used to perform detection.
In FIG. 6, c-Myc protein expression correlates with SCD1 sensitive cell lines. SCD1 protein is expressed in most cancer cells (HCC and ccRCC) while c-Myc protein expression appears to be expressed in SSI-4 sensitive cells.

[7] = test system: c-Myc silenced SSI-4 responsive cells / c-Myc overexpressing nonresponsive cells; assay: Cell viability after c-Myc silencing (shRNA) or c-Myc overexpression; format: cell-based
Method: c-Myc gene silencing (shRNA) and c-Myc over-expression: Lentivirus shRNA pLKO.1 constructs were used to make self-inactivating shRNA lentiviruses for human c-Myc and a nontarget random scrambled sequence control. Transfection reagents Lipofectamine 2000 and ViraPower were used to generate lentiviruses using HEK293FT viral progenitor cells. Cells were incubated with lentivirus plus […] polybrene for 24 hours before clonal selection with puromycin.
In FIG. 8, overexpression of c-Myc in nonresponsive SSI-4 cells convert cells to SSI-4 sensitive (growth inhibited) cells. c-Myc mRNA expression is ˜2-fold elevated in cells infected with a c-Myc expression plasmid (FIG. 8A).

[8] = test system: PDX tumor models for RCC, HCC, melanoma and CCA; assay: PDTX tumor models in Nod Scid gamma mice; format: in vivo, NSG mice; conditions: oral, 180 parts per million in chow=10 mg/kg daily; treatment from ~75 mm^3; models predicted responsive by IHC
Method: Animal models and drug testing: PDTX tumors (5×5×5-mm) were implanted into Nod Scid gamma mice with treatment (vehicle control or oral SSI-4) begun when tumors were approximately ˜75-100 mm^3. Tumor volume, food consumption and body weight were monitored twice weekly. Tumor tissue was collected and processes for IHC.
In FIG. 10, PDTX tumor models for HCC, ccRCC, CCA, and melanoma respond to SSI-4 or not correlate with predictions shown in FIG. 10. PDTX tumors were grown in the right flank of Nod Scid Gamma (NSG) mice with treatment beginning when tumors reach ˜75 mm^3 with the start of SSI-4 oral treatment. Tumor tissues were formalin fixed and paraffin block slides were stained for SCD1, c-Myc, LDHA, p-Src by standard IHC protocols for protein expression. PDTX models tested include RCC, HCC, melanoma, and CCA. * indicates statistical difference of SSI-4 from same day treatment control (P<0.05). Number in red predicts no response to SSI-4 (SCD1 inhibitor). […] Cells resistant to SSI-4 may have low or no cMyc and no or low LDHA with elevated p-Src. Cell with elevated cMyc and LDHA and low p-Src are responsive to SSI-4 or SCD1 inhibition.

## CNC(=O)c1ccnc(NC(=O)N2CCC(Oc3ccccc3Cl)CC2)c1 [SSI-4, 2-{[4-(2-Chlorophenoxy)piperidine-1-carbonyl]amino}-N-methylpyridine-4-carboxamide]
[1]
  IC50: 1 to 40 nM
[2]
  rescue of SSI-4 inhibition of cell proliferation by oleic acid (BSA-OA): complete rescue
[3]
  colony formation on soft agar: blocked colony formation
[4]
  unsaturated fatty acids (UFAs): suppressed UFAs to levels equal to non-responsive cells
[5]
  mRNA expression for ER stress induced proteins: became elevated
[6]; 1 μM SSI-4, restored by oleic acid BSA
  c-Myc and c-Myc regulated genes (cyclin D1 and survivin) protein expression: down-regulated
[6]; HCC cell lines
  ER stress (BIP protein, Western): upregulation of BIP protein
  apoptosis (cleaved PARP and cleaved caspase 3, Western): Apoptotic cell death is induced
[6]; HCC cell lines, rescue by OA
  cMyc protein (Western): down-regulates cMyc protein
[7]; SSI-4 responsive cells with c-Myc shRNA
  sensitivity of cells silenced for c-Myc to SSI-4 treatment: become insensitive
[7]; c-Myc expressing (previously nonresponsive) cells, 1 uM SSI-4, read-out: enhanced growth inhibition
  inhibition at 1 µM: 33 to 45%
[8]
  tumor response (tumor volume): respond

— US20230201192A1, “METHODS AND MATERIALS FOR ASSESSING AND TREATING CANCER” (Mayo Foundation for Medical Education and Research, priority 2020, published 2023)
